Here are results for two molecules from US20090312438A1, “Compositions and Methods for Attenuating the Formation of A2E in the Retinal Pigment Epithelium” (priority 2008, published 2009).

In one data set the test system is A2E formation in the RPE. The data set can be described thus: Xanthophyll supplementation in Japanese quail: A2E in RPE/choroid by HPLC-MS. The format is in vivo, Japanese quail (Coturnix japonica). Particulars: for Rise of A2E levels from baseline levels: 16-week supplementation, P=0.1, unsupplemented control rose more than six-fold; for A2E oxidation products in mass spectra versus control group: A2E extracted from RPE, FIG. 5; for A2E levels in the RPE, control group relative to supplemented groups: FIG. 4, 16 weeks, N=4, P<0.001; for Inhibition of A2E formation relative to birds fed a control diet low in carotenoids: high dose supplementation. As for the experimental part:
A2E and its isomers were extracted and isolated from RPE/choroid using a previously described method (8). RPE samples were homogenized in 1:1 CHCl3/MeOH (2 ml) and 0.01 M phosphate-buffered saline (PBS) (1 ml). The homogenizer was washed with 1:1 CHCl3/MeOH (2 ml), 0.01 M PBS (1 ml), and then CHCl3 (2 ml) and CH2Cl2 (2 ml) were added to remove any remaining material. All solutions were combined, and the organic layer was extracted from the aqueous layer. The combined organic extracts were evaporated to dryness under vacuum at room temperature. The residue was dissolved in MeOH for HPLC. The vials were centrifuged at approximately 2000 g to remove the minor amounts of insoluble solid particles prior to analysis.
HPLC analysis was performed on a Thermo Separations (San Jose, Calif.) HPLC system with binary gradient pumps, a refrigerated autosampler, a UV6000 photodiode-array detector (PDA), and an MSQ single quadrupole mass spectrometer. Peak identities were confirmed by PDA and mass spectra and by co-elution with authentic standards as necessary. Calibration was by external standardization curves with authentic standards. […] Typical reproducibility with external standardization in our laboratory is +5%.
A2E HPLC analysis: The dried A2E samples were redissolved in 100 μl of MeOH. A gradient of 84-100% acetonitrile (A) with 0.05% trifluoroacetic acid in H2O (B) over 35 minutes was used to separate A2E at a flow rate of 1.0 ml min^−1 on a reverse-phase C18 column (4.6×250 mm, Phenomenex, Atlanta, Ga.). The column was maintained at room temperature, and the HPLC PDA detector was operated at 440 nm.
MS analysis was performed using a Thermo Separations (San Jose, Calif.) MSQ single quadrupole mass spectrometer, equipped with an electron spray ionization (ESI) source and an atmospheric pressure chemical ionization (APCI) source. A2E and carotenoids were ionized in positive ion ESI and APCI modes, respectively. To avoid overloading of eluted solvent molecules in the mass spectrometer and to optimize ionization conditions, 50% of the eluate was directed to waste with the help of a diverter valve after the PDA detector. The delay time from PDA to MS was 0.13 minutes. […] Selected ion monitoring (SIM) was performed using dwell time of 200 ms for each channel. In SIM mode, the m/z channels 592±3, 608±1.5, 624±1.5, and 640±1.5 were used for A2E and its oxidative products. Typical detection conditions for A2E were: RF lens bias voltage 0.1V, cone voltage 80V and heater temperature 550° C. The ion source and tuning lens parameters were optimized automatically by infusing A2E samples via the injector. For carotenoids, the m/z channels 551±0.7 and 569±0.7 were used for lutein, and 569±0.8 for zeaxanthin. Typical detection conditions were: corona discharge current 5 μA, cone voltage 80V, and probe temperature 500° C.
Adult Japanese quail (Coturnix japonica) were procured from B&D farms (Harrah, Okla.), and all experiments were reviewed and approved by the University of Utah's Institutional Animal Care and Use Committee. The birds were kept under ambient room light on a 12-hour light-dark cycle, and they were divided into three groups of four birds: lutein supplemented, zeaxanthin supplemented, and unsupplemented. All birds were fed daily with a standard turkey diet (˜20 g/day) (Purina Mills, St. Louis, Mo.) that was low in carotenoids (1.10 ng/g). The supplemented birds were gavaged daily with 0.5 ml of a microbial extract rich in lutein or zeaxanthin for 16 weeks (0.2 mg of carotenoid per bird per day). Lutein was prepared from the freshwater alga Chlorella protothecoides CS 41 (Microalgae Supply Service, CSIRO, Hobart Australia) under conditions described earlier (36). Zeaxanthin was obtained from the non-pathogenic bacteria Flavobacterium multivorum ATCC 55238 grown on liquid growth medium as detailed earlier (37). […]

For data set [1] the following is noted: extensive use in humans as dietary supplements; cited from earlier work.
For data set [2] the following is noted: female, Japanese quail (Coturnix japonica), in vivo, 16 weeks. As for the experimental part: Tissues were homogenized and extracted three times with tetrahydrofuran containing 0.1% butylated hydroxytoluene by sonication at 5° C. to 10° C. for 30 minutes each time. The combined organic extracts were evaporated to dryness under vacuum at room temperature. The dried residue was redissolved in one ml of HPLC mobile phase and centrifuged at approximately 2000 g for 10 minutes to remove the minor amounts of insoluble solid particles prior to analysis. The majority of carotenoids in bird retinas are esterified (32), so after the initial extraction, the dried carotenoid residue was redissolved in hexane and subjected to saponification in 1.8% (w/v) methanolic potassium hydroxide (KOH) for two hours at room temperature. After saponification, the samples were washed with water until the samples achieved neutral pH. The vials were centrifuged at approximately 2000 g to remove the minor amounts of insoluble solid particles. The solution was evaporated to dryness on a rotary evaporator under reduced pressure at room temperature and reconstituted in the appropriate HPLC solvents.
HPLC analysis was performed on a Thermo Separations (San Jose, Calif.) HPLC system with binary gradient pumps, a refrigerated autosampler, a UV6000 photodiode-array detector (PDA), and an MSQ single quadrupole mass spectrometer. […]

With `CC1=C(/C=C/C(C)=C/C=C/C(C)=C/C=C/C=C(C)/C=C/C=C(C)/C=C/C2=C(C)C[C@@H](O)CC2(C)C)C(C)(C)C[C@H](O)C1` [Zeaxanthin, (3R, 3′R)-zeaxanthin], in the data set on A2E formation in the RPE, the “Rise of A2E levels from baseline levels” value was “barely any rise from baseline levels”; the “A2E oxidation products in mass spectra versus control group” value was “control group had higher levels of oxidation products in comparison”; the “A2E levels in the RPE, control group relative to supplemented groups” value is reported as “significantly higher for the control group”; the “Inhibition of A2E formation relative to birds fed a control diet low in carotenoids” value is “profound inhibition of A2E formation”. Further, in data set [1], the “Toxicity in humans as dietary supplements” value is “no toxicity has ever been reported”.

For `CC1=C[C@H](O)CC(C)(C)[C@H]1/C=C/C(C)=C/C=C/C(C)=C/C=C/C=C(C)/C=C/C=C(C)/C=C/C1=C(C)C[C@@H](O)CC1(C)C` [Lutein, (3R, 3′R, 6′R)-lutein], in the data set with A2E formation in the RPE, the “Rise of A2E levels from baseline levels” value was “barely any rise from baseline levels”; the “A2E oxidation products in mass spectra versus control group” value was “control group had higher levels of oxidation products in comparison”; the “A2E levels in the RPE, control group relative to supplemented groups” value is on record as “significantly higher for the control group”; the “Inhibition of A2E formation relative to birds fed a control diet low in carotenoids” value is recorded as “profound inhibition of A2E formation”. In data set [2], the “Increase of total lutein and zeaxanthin levels (retina) relative to baseline” value was found to be 2.8 fold; the “Rise of total retinal carotenoid levels relative to baseline” value amounted to 1.6 fold. Besides, the “Toxicity in humans as dietary supplements” value in data set [1] is given as “no toxicity has ever been reported”.
